Source: PubChem BioAssay AID328 (DTP/NCI, 2004)
“And” between values parts separate entries of the source, which are not always exact repeats. Equal values may be shown once. Inconclusive results and toxic doses are left out.

Test system: BDF1 mice, P388 leukemia ip, median survival T/C
Assay: NCI In Vivo Anticancer Drug Screen. Data for tumor model P388 Leukemia (intraperitoneal) in B6D2F1 (BDF1) mice
Conditions: endpoint: median survival time, higher = longer survival
Summary of the method: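 Vehicle-dosed animals serve as the reference; survival of compound-dosed, tumour-implanted mice is divided by it.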

[1] = dose: 100.0 mg/kg/injection, schedule: Q04DX003 (ip), vehicle: Klucel (hydroxypropylcellulose) (HPC)
[2] = dose: 200.0 mg/kg/injection, schedule: Q04DX003 (ip), vehicle: Klucel (hydroxypropylcellulose) (HPC)
[3] = dose: 400.0 mg/kg/injection, schedule: Q04DX003 (ip), vehicle: Klucel (hydroxypropylcellulose) (HPC)
[4] = dose: 100.0 mg/kg/injection, schedule: Q01DX009 (ip), vehicle: saline
[5] = dose: 200.0 mg/kg/injection, schedule: Q01DX009 (ip), vehicle: saline
[6] = dose: 100.0 mg/kg/injection, schedule: Q01DX009 (ip), vehicle: Klucel (hydroxypropylcellulose) (HPC)
[7] = dose: 200.0 mg/kg/injection, schedule: Q01DX009 (ip), vehicle: Klucel (hydroxypropylcellulose) (HPC)
[8] = dose: 100.0 mg/kg/injection, schedule: Q04DX003 (ip), vehicle: saline with Tween-80
[9] = dose: 200.0 mg/kg/injection, schedule: Q04DX003 (ip), vehicle: saline with Tween-80
[10] = dose: 400.0 mg/kg/injection, schedule: Q04DX003 (ip), vehicle: saline with Tween-80
[11] = dose: 25.0 mg/kg/injection, schedule: Q01DX009 (ip), vehicle: saline with Tween-80
[12] = dose: 50.0 mg/kg/injection, schedule: Q01DX009 (ip), vehicle: saline with Tween-80
[13] = dose: 100.0 mg/kg/injection, schedule: Q01DX009 (ip), vehicle: saline with Tween-80
[14] = dose: 200.0 mg/kg/injection, schedule: Q01DX009 (ip), vehicle: saline with Tween-80

With `CCOC(=O)c1[nH]c2c(c1CC(CC)[N+](=O)[O-])CCCC2` (stereo unspecified) the T/C [1] was 95 % of control, the T/C [2] was 100 % of control and the T/C [3] was 91 % of control.

For `CS(=O)(=O)Nc1ccccc1O`, the T/C (dose: 50.0 mg/kg/injection, schedule: Q01DX009 (ip), vehicle: other) was 96 % of control, the T/C (dose: 100.0 mg/kg/injection, schedule: Q01DX009 (ip), vehicle: other) was 104 % of control and the T/C (dose: 200.0 mg/kg/injection, schedule: Q01DX009 (ip), vehicle: other) was 97 % of control.

For `CN(C)C=Nc1cc(Cl)c(Cl)cc1Cl`, the T/C (dose: 50.0 mg/kg/injection, schedule: Q01DX009 (ip), vehicle: saline) was 100 % of control, the T/C [4] was 110 % of control and the T/C [5] was 111 % of control.

In the case of `CCOC(=O)c1ccc(NC(=O)Nc2c(C)n(C)n(-c3ccccc3)c2=O)cc1`, the T/C (dose: 50.0 mg/kg/injection, schedule: Q01DX009 (ip), vehicle: Klucel (hydroxypropylcellulose) (HPC)) is reported as 100 % of control, the T/C [6] is reported as 100 % of control and the T/C [7] is reported as 90 % of control.

For `O=S(=O)(Nc1ccc(O)cc1)c1ccccc1`, the T/C [8] was 100 % of control, the T/C [9] was 95 % of control and the T/C [10] was 104 % of control.

In the case of `COc1cc2ccc3c(c2cc1OC)C(=O)CNC3C` (stereo unspecified), the T/C (dose: 3.13 mg/kg/injection, schedule: Q01DX009 (ip), vehicle: saline) is reported as 104 % of control, the T/C (dose: 3.13 mg/kg/injection, schedule: Q04DX003 (ip), vehicle: saline) is reported as 109 % of control and the T/C (dose: 6.25 mg/kg/injection, schedule: Q01DX009 (ip), vehicle: saline) is reported as 100 % of control. The T/C (dose: 6.25 mg/kg/injection, schedule: Q04DX003 (ip), vehicle: saline) was 100 % of control, the T/C (dose: 12.5 mg/kg/injection, schedule: Q01DX009 (ip), vehicle: saline) was 100 % of control and the T/C (dose: 12.5 mg/kg/injection, schedule: Q04DX003 (ip), vehicle: saline) was 109 % of control.

In the case of `C[C@]12CCC(=O)C=C1CC[C@H]1[C@@H]3C[C@@H](O)[C@](O)(C(=O)CO)[C@@]3(C)C[C@H](O)[C@@]12F`, the T/C [4] is reported as 108 % of control, the T/C (dose: 100.0 mg/kg/injection, schedule: Q04DX003 (ip), vehicle: saline) is reported as 108 % of control and the T/C [5] is reported as 87 % of control. For the same molecule, the T/C (dose: 200.0 mg/kg/injection, schedule: Q04DX003 (ip), vehicle: saline) was 116 % of control and the T/C (dose: 400.0 mg/kg/injection, schedule: Q04DX003 (ip), vehicle: saline) was 100 % of control.

`O=c1c2ccccc2c2nc3ccc4c(=O)c5ccccc5c5nc6ccc1c2c6c3c45` was tested, and the T/C (dose: 50.0 mg/kg/injection, schedule: Q01DX005 (ip), vehicle: saline with Tween-80) was 100 % of control and the T/C (dose: 100.0 mg/kg/injection, schedule: Q01DX005 (ip), vehicle: saline with Tween-80) was 100 % of control.

For `S=c1[nH]nc2n1NC(c1ccccc1)=NN2`, the T/C [8] was 91 % of control, the T/C [9] was 87 % of control and the T/C [10] was 95 % of control.

`O=c1nc(Oc2ccccc2)nc2c3ccccc3ccn12` was tested, and the T/C (dose: 12.5 mg/kg/injection, schedule: Q01DX009 (ip), vehicle: saline with Tween-80) was 118 % of control, the T/C [11] was 102 % of control and the T/C [12] was 112 % of control. The T/C [13] was 114 % of control and 119 % of control and the T/C [14] was 89 % of control.

In the case of `CCCn1c2nc(=O)n(C)c(=O)c-2[n+]([O-])c2ccccc21`, the T/C (dose: 6.25 mg/kg/injection, schedule: Q01DX001 (ip), vehicle: saline with Tween-80) is reported as 101 % of control and the T/C (dose: 12.5 mg/kg/injection, schedule: Q01DX001 (ip), vehicle: saline with Tween-80) is reported as 99 % of control.

In the case of `O=C1C(F)=C(N2CC2)C(=O)C(N2CCOCC2)=C1N1CC1`, the T/C (dose: 3.0 mg/kg/injection, schedule: Q01DX009 (ip), vehicle: saline) is reported as 157 % of control and the T/C (dose: 6.0 mg/kg/injection, schedule: Q01DX009 (ip), vehicle: saline) is reported as 99 % of control.

In the case of `CCCC(C1=CC(C)(C)c2ccccc2C1=O)c1ccc(Br)cc1` (stereo unspecified), the T/C (dose: 75.0 mg/kg/injection, schedule: Q01DX009 (ip), vehicle: Klucel (hydroxypropylcellulose) (HPC)) is reported as 109 % of control, the T/C [6] is reported as 100 % of control and the T/C [1] is reported as 100 % of control. The T/C (dose: 150.0 mg/kg/injection, schedule: Q01DX009 (ip), vehicle: Klucel (hydroxypropylcellulose) (HPC)) was 113 % of control, the T/C [7] was 95 % of control and 100 % of control and the T/C [2] was 100 % of control. The T/C (dose: 300.0 mg/kg/injection, schedule: Q01DX009 (ip), vehicle: Klucel (hydroxypropylcellulose) (HPC)) was 100 % of control, the T/C (dose: 400.0 mg/kg/injection, schedule: Q01DX009 (ip), vehicle: Klucel (hydroxypropylcellulose) (HPC)) was 95 % of control and the T/C [3] was 100 % of control.

`c1ccc(Nc2n[n+](-c3ccccc3)no2)cc1` was tested, and the T/C [11] was 105 % of control, the T/C [12] was 101 % of control and the T/C [13] was 101 % of control and 104 % of control. The T/C [8] was 107 % of control, the T/C [14] was 88 % of control and the T/C [9] was 106 % of control. The T/C [10] was 102 % of control.
